{"source": "patent US20050059032A1", "about": "“Methods & compositions relating to drug-induced arrhythmia” (Pfizer Inc, priority 2002, published 2005)", "tested_on": "patients with congestive heart failure or recent myocardial infarction", "settings": "human, in vivo", "text": "Genomic DNA samples were obtained from the blood samples of patients enrolled in the DIAMOND study (Danish Investigations of Arrhythmia and Mortality on Dofetilide) or a clinical protocol similar in nature to the DIAMOND Study. These studies focused on the effects of Dofetilide on two populations of patients, one with congestive heart failure and one with recent myocardial infarction associated with left ventricular dysfunction (ejection fraction <35%) (Moller, M., (1996) Lancet, 348(9041):1597-8; Moller, M. et al., (1997) Congest Heart Fail., 7(3):146-150). DNA samples were obtained from 105 patients in total. Of the 105 patients, 7 developed torsade de pointes (TdP) upon treatment with Dofetilide while the remaining 98 patients responded to treatment without developing TdP as a side effect.", "data": [{"smiles": "CN(CCOc1ccc(NS(C)(=O)=O)cc1)CCc1ccc(NS(C)(=O)=O)cc1", "note": "[Dofetilide]", "values": [{"measurement": "patients who developed torsade de pointes (TdP) upon treatment", "result": 7}]}]}
